Assay results as given in patent US8945397B2, “Methods of inhibiting cyanobacteria growth by administering gramine derivatives” (priority 2012, dated 2015).
Entries after “also recorded” stand apart in the source; their conditions may differ.

How the values were obtained:
M. Aeruginosa [1] = assay: Liquid culture optical absorption assay (OD600) of M. aeruginosa growth, 15 days; format: cell-based, Microcystis aeruginosa; settings: 0.5 mg/L, Table 2 and FIG. 3
Procedure: To quantitatively measure M. Aeruginosa cell growth in responding to various gamine compounds, cell densities were determined by an optical absorption assay as measured by a spectrophotometer (Nanodrop 2000, Thermo Scientific). In the optical absorption assay, the absorbance of radiation (light) is measured as a function of frequency (wavelength). For this optical absorption assay, the algal cell density was determined at 600 nm wavelength. Equal amount of starting cells (optical density at wavelength 600 nm, OD600, was at 0.100 on Day 0) were placed in freshwater culture for 15 days of growth. After 15 days, the algae cell suspension is pipetted into a cuvette and placed within the spectrophotometer for the optical absorption assay.
There is a clear and distinct decrease in M. Aeruginosa algae growth when administered with 5,6-dichlogramine (Compound No. 9) and with 5,6,7-trichlorogramine (Compound No. 12) compared to M. Aeruginosa algae growth in control samples.

M. Aeruginosa [2] = assay: Effective potency duration test in 1 L tap fresh water; format: cell-based, Microcystis aeruginosa; settings: about 0.05 mg/L; for OD600 after 180 days / OD600 after 15 days of M. aeruginosa growth: 1 L tap fresh water; for OD600 after 15 days of M. aeruginosa growth: unadministered control 0.119; for duration of effectiveness after administration: single administration
Procedure: Both 5,6-dichlorogramine and 5,6,7-trichlorogramine are not only potent M. aeruginosa growth inhibitors, but they are effective inhibitors for a long period of time. In an experiment to test the effective potency duration of the compound, an equal amount of M. aeruginosa was grown in each of two containers, each containing about 1 L of fresh water from an urban sink tap. One container was administered with about 0.05 mg/L of 5,6-dichlorogramine, and the control container was not administered with any compounds. After 15 days of M. aeruginosa growth, the OD600 measurement for the unadministered M. aeruginosa freshwater sample was 0.119. The unadministered M. aeruginosa freshwater sample was discarded after 15 days. In contrast, after 15 days of M. aeruginosa growth, the OD600 measurement for the 5,6-dichlorogramine administered freshwater sample was 0.003. After 180 days, the OD600 measurement for the M. aeruginosa freshwater sample administered with 5,6-dichlorogramine remained at 0.003.
In another experiment, an equal amount of M. aeruginosa was grown in each of two containers, each containing about 1 L of fresh water from an urban sink tap. One container was administered with about 0.05 mg/L of 5,6,7-trichlorogramine, and the control container was not administered with any compounds. After 15 days of M. aeruginosa growth, the OD600 measurement for the unadministered M. aeruginosa freshwater sample was 0.119. The unadministered M. aeruginosa freshwater sample was discarded after 15 days. In contrast, after 15 days of M. aeruginosa growth, the OD600 measurement for the 5,6,7-trichlrogramine administered freshwater sample was 0.003. After 180 days, the OD600 measurement for the M. aeruginosa freshwater sample administered with 5,6,7-trichlorogramine remained at 0.003.

Arabidopsis thaliana = assay: Toxicity to Arabidopsis thaliana plants in petri dishes; format: in vivo; settings: 8 mg/L in MS medium
Procedure: The effects of both compounds were tested on Arabidopsis thaliana, a small flowering plant that is widely used as an experimental model plant for laboratory studies. A. thaliana seeds were placed in petri dishes containing standard plant growth media with one gramine compound added (about 8 mg/L). For the control sample, the seeds were placed on the identical growth media without any gramine compound added. All petri dishes containing A. thaliana were kept in a lighted plant growth chamber at 22° C. with cycles of 16-hr light and 8-hr dark. Seed germination and seedling development were closely monitored and documented every 24 hours.
FIGS. 8a and 8b show images of A. thaliana plants after 8 days of plant growth, or 8 days after germination. The A. thaliana plants were grown in petri dishes filled with Murashige and Skoog medium (MS plant growth medium containing both macronutrients, micronutrients, and vitamins) purchased from Sigma (Cat #M5519)).
FIGS. 9a and 9b show images of A. thaliana plants after 10 days of growth, or 10 days after germination. The A. thaliana plants were grown in petri dishes filled with Murashige and Skoog medium (MS plant growth medium containing both macronutrients, micronutrients, and vitamins) purchased from Sigma (Cat #M5519)).

[3] = test system: M. aeruginosa cyanobacteria, isolate strain 2667; assay: Petri dish screen of gramine compounds for M. aeruginosa growth inhibition; format: cell-based, Microcystis aeruginosa; settings: about 0.5 mg/L compound in BG-11 medium, after 15 days, FIG. 2
Procedure: The screen tested the compounds on M. aeruginosa cyanobacteria, isolate strain 2667 from Culture Collection of Algae (CCA) at the University of Texas at Austin. For the initial screening test, the twelve compounds were each administered at different concentrations of: 0.5 mg/L, 1.0 mg/L, 2.0 mg/L, 4.0 mg/L, and 8.0 mg/L. The compounds were added to a freshwater culture medium (BG-11 Medium from the CCA, UTEX) in petri dishes. The petri dish plates were then incubated at about 22° C. in a lighted growth chamber with about 16-hr light and about 8-hr dark. M. aeruginosa algae growth in the petri dishes were examined and documented after 15 days of incubation.
M. aeruginosa cells were streaked out on BG-11 medium that contained about 0.5 mg/L of the indicated compound. […] The faint algae smears for petri dishes streaked with 5,6-dichlogramine show the original algae cells that had died in the petri dish. […] The faint algae smears for petri dishes streaked with 5,6,7-trichlogramine show the original algae cells that had died in the petri dish.

SMILES	Inhibition of M. aeruginosa growth in words (liquid culture) (M. Aeruginosa [1])	OD600 after 180 days (M. Aeruginosa [2])	OD600 after 15 days of M. aeruginosa growth (M. Aeruginosa [2])	duration of effectiveness after administration (M. Aeruginosa [2])	growth and development of A. thaliana versus control (Arabidopsis thaliana; 8 days after germination)	M. aeruginosa growth in petri dishes [3]	growth and development of A. thaliana versus control (Arabidopsis thaliana; 10 days after germination)
CN(C)Cc1c[nH]c2cc(Cl)c(Cl)cc12 [Compound No. 9, 5,6-dichlorogramine]	significantly inhibit the growth	0.003	0.003	at least 180 days	no growth or developmental difference	no M. aeruginosa growth; also recorded: inhibited M. aeruginosa growth completely	
CN(C)Cc1c[nH]c2c(Cl)c(Cl)c(Cl)cc12 [Compound No. 12, 5,6,7-trichlorogramine]	significantly inhibit the growth	0.003	0.003	at least 180 days		no M. aeruginosa growth; also recorded: inhibited M. aeruginosa growth completely	no growth or developmental difference
